These results are taken from patent US20230293458A1, “MULTIBIOTIC AGENTS AND METHODS OF USING THE SAME” (Flagship Pioneering Innovations V, Inc., priority 2017, published 2023).

A short description of data set [1]: Stability of multibiotic agents in Simulated Intestinal Fluid (SIF). It counts as in vitro ADME. Particulars: simulated intestinal fluid pH 6.7 with pancreatin, 37° C., 1 μM. The method, then: Assay 2. Stability of multibiotic agents in Simulated Intestinal Fluid (SIF). This assay can be used to assess the stability of a multibiotic agent in a small intestine. Phosphate buffer was prepared by dissolving 0.42 g of sodium hydroxide pellets and 3.95 g of monobasic sodium phosphate monohydrate and 6.19 g of sodium chloride in ultrapure water (MilliQ®, Millipore Sigma, Darmstadt, Germany). The pH was adjusted to 6.7 using aq. HCl and aq. NaOH, as necessary, and the solution was diluted with ultrapure water to produce 1 L of the pH 6.7 buffer. 112 mg FaSSIF powder (Biorelevant™, London, UK) was dissolved in 50 mL of the pH 6.7 buffer. 2 to 3 mL of the resulting solution were then added to 500 mg pancreatin (Millipore Sigma, Darmstadt, Germany). The resulting mixture was agitated by finger tapping the vessel containing the mixture until milky suspension formed. At this time, the remainder of the 50 mL FaSSiF/pH 6.7 buffer solution was added. The resulting suspension was flipped upside down 10 times to produce SIF, which was used fresh. Test compounds are dissolved in DMSO stock to 1 mM. An aliquot of the DMSO stock solution is removed and diluted in the SIF media in 15 mL falcon tubes to produce a mixture with a tested compound concentration of 1 μM. A 1 mL aliquot is immediately removed and diluted once with 1 volume of acetonitrile for T0 timepoint. The mixture is sealed and agitated at 37° C. in an incubator. Aliquots (1 mL) are removed at regular intervals and immediately quenched by the addition of 1 volume of acetonitrile. The resulting samples are analyzed by LC/MS to determine degradation rates.

A short description of data set [2]: Stability of multibiotic agents in Simulated Gastric Fluid (SGF). It counts as in vitro ADME. To be noted: simulated gastric fluid pH 1.6 with pepsin, 37° C., 1 μM. The method, then:
Assay 3. Stability of multibiotic agents in Simulated Gastric Fluid (SGF). This assay can be used to assess the stability of a multibiotic agent in a stomach.
Medium was prepared by dissolving 2 g of sodium chloride in 0.6 L in ultrapure water (MilliQ®, Millipore Sigma, Darmstadt, Germany). The pH was adjusted to 1.6 with 1 N hydrochloric acid, and the volume was then adjusted to 1 L with purified water.
60 mg FaSSIF powder (Biorelevant™, London, UK) were dissolved in 500 mL buffer (above). Pepsin was added (0.1 mg/mL) (Millipore Sigma, Darmstadt, Germany), and the solution was stirred. The resulting SGF media were used fresh for each experiment.
Test compounds were dissolved in DMSO stock to 1 mM. An aliquot of the DMSO stock solution was removed and diluted in the SGF Media in 15 mL falcon tubes to generate a total compound concentration of 1 μM. A 1 mL aliquot was immediately removed and diluted once with 1 volume of acetonitrile for T0 timepoint. The mixture was sealed and mixed at 37° C. in an incubator. Aliquots (1 mL) were removed at regular intervals and immediately quenched by the addition of 1 volume of acetonitrile. The resulting samples were analyzed by LC/MS to determine degradation rates in SGF.

Consider `CCCC(=O)O[C@H](C)CC(=O)Oc1ccc(/C=C/C(=O)CC(=O)/C=C/c2ccc(OC(=O)C[C@@H](C)OC(=O)CCC)c(OC)c2)cc1OC` [Example 73, [4-[(1E,6E)-7-[4-[(3R)-3-butanoyloxybutanoyl]oxy-3-methoxy-phenyl]-3,5-dioxo-hepta-1,6-dienyl]-2-methoxy-phenyl] (3R)-3-butanoyloxybutanoate], for which the “Assay 3 (SIF) (% @ Remaining 4 hours)” value in data set [1] was “B (25-75% of the tested compound remaining)”. Further, in data set [2], the “Assay 2 (SGF) (% Remaining @ 4 hours)” value is recorded as “C (>75% of the tested compound remaining)”.

In the case of `CC(=O)Oc1cc(OC(C)=O)c2c(=O)c(OC(C)=O)c(-c3ccc(OC(C)=O)c(OC(C)=O)c3)oc2c1` [Example 74, [2-acetoxy-4-(3,5,7-triacetoxy-4-oxo-chromen-2-yl)phenyl] acetate], in data set [1], the “Assay 3 (SIF) (% @ Remaining 4 hours)” value is “A (<25% of the tested compound remaining)”. The “Assay 2 (SGF) (% Remaining @ 4 hours)” value in data set [2] is listed as “C (>75% of the tested compound remaining)”.

As to `CCCC(=O)Oc1cc(OC(=O)CCC)c2c(=O)c(OC(=O)CCC)c(-c3ccc(OC(=O)CCC)c(OC(=O)CCC)c3)oc2c1` [Example 75, [2-butanoyloxy-4-[3,5,7-tri(butanoyloxy)-4-oxo-chromen-2-yl]phenyl]butanoate], the “Assay 3 (SIF) (% @ Remaining 4 hours)” value in data set [1] is “B (25-75% of the tested compound remaining)”. Further, the “Assay 2 (SGF) (% Remaining @ 4 hours)” value in data set [2] was “C (>75% of the tested compound remaining)”.

With `C[C@@H](O)CC(=O)O[C@H]1CO[C@H]2[C@@H]1OC[C@H]2OC(=O)C[C@@H](C)O` [Example 78, [(3S,3aR,6R,6aR)-6-[(3R)-3-hydroxybutanoyl]oxy-2,3,3a,5,6,6a-hexahydrofuro[3,2-b]furan-3-yl] (3R)-3-hydroxybutanoate], the “Assay 3 (SIF) (% @ Remaining 4 hours)” value in data set [1] was “B (25-75% of the tested compound remaining)”. The “Assay 2 (SGF) (% Remaining @ 4 hours)” value in data set [2] is “C (>75% of the tested compound remaining)”.

Turning to `CC(=O)OCc1cnc(C)c(O)c1COC(C)=O` [Example 80, [4-(acetoxymethyl)-5-hydroxy-6-methyl-3-pyridyl] methyl acetate], in data set [1], the “Assay 3 (SIF) (% @ Remaining 4 hours)” value was “C (>75% of the tested compound remaining)”. Moreover, the “Assay 2 (SGF) (% Remaining @ 4 hours)” value in data set [2] is reported as “C (>75% of the tested compound remaining)”.

For `CC(=O)OC[C@H](OC(C)=O)[C@@H](COC(C)=O)OC(C)=O` [Example 81, (2R, 3S)-butane-1,2,3,4-tetrayl tetraacetate], the “Assay 3 (SIF) (% @ Remaining 4 hours)” value in data set [1] is recorded as “C (>75% of the tested compound remaining)”. In addition, the “Assay 2 (SGF) (% Remaining @ 4 hours)” value in data set [2] is on record as “C (>75% of the tested compound remaining)”.

On to `CCCC(=O)OC[C@H](OC(=O)CCC)[C@@H](COC(=O)CCC)OC(=O)CCC` [Example 82, (2R,3S)-butane-1,2,3,4-tetrayl tetrabutyrate], for which the “Assay 3 (SIF) (% @ Remaining 4 hours)” value in data set [1] is listed as “B (25-75% of the tested compound remaining)”. Besides, the “Assay 2 (SGF) (% Remaining @ 4 hours)” value in data set [2] was “C (>75% of the tested compound remaining)”.

On to `CO[C@@H]1[C@@H](OC(C)=O)[C@@H](OC(C)=O)[C@H](OC(C)=O)[C@H](OC(C)=O)[C@H]1OC(C)=O` [Example 84, (1R,2R,3R,4S,5R,6R)-2,3,4,6-tetrakis(acetyloxy)-5-methoxycyclohexyl acetate], for which the “Assay 3 (SIF) (% @ Remaining 4 hours)” value in data set [1] was “C (>75% of the tested compound remaining)”. For the same compound, the “Assay 2 (SGF) (% Remaining @ 4 hours)” value in data set [2] is recorded as “C (>75% of the tested compound remaining)”.

As for `CCCC(=O)O[C@H]1[C@H](OC(=O)CCC)[C@H](OC(=O)CCC)[C@@H](OC)[C@H](OC(=O)CCC)[C@H]1OC(=O)CCC` [Example 85, (1R,2R,3R,4S,5R,6R)-2,3,4,6-tetrakis(butanoyloxy)-5-methoxycyclohexyl butanoate], in data set [1], the “Assay 3 (SIF) (% @ Remaining 4 hours)” value is on record as “C (>75% of the tested compound remaining)”. In addition, the “Assay 2 (SGF) (% Remaining @ 4 hours)” value in data set [2] is “C (>75% of the tested compound remaining)”.

With `CC(=O)OC[C@@H](OC(C)=O)[C@H]1OC[C@H](OC(C)=O)[C@H]1OC(C)=O` [Example 86, [(2R)-2-acetoxy-2-[(2R,3R,4S)-3,4-diacetoxytetrahydrofuran-2-yl]ethyl] acetate], the “Assay 3 (SIF) (% @ Remaining 4 hours)” value in data set [1] is given as “C (>75% of the tested compound remaining)”. For the same compound, the “Assay 2 (SGF) (% Remaining @ 4 hours)” value in data set [2] is reported as “C (>75% of the tested compound remaining)”.
